Values quoted from earlier work as cited in patent US20190274964A1, “NEW IMPROVED COMPOSITION OF RACECADOTRIL” (JOHNSON & JOHNSON CONSUMER INC., priority 2016, published 2019).

Test system: castor-oil induced diarrhea
Conditions: rats

## O=C(O)CNC(=O)C(CS)Cc1ccccc1 (centres unmarked) [thiorphan]
  Inhibition of castor-oil induced diarrhea: inhibit castor-oil induced diarrhea
Intravenous administration, most prominent during first two hours following challenge
  Protection against diarrhea as measured by cumulative stool weight and time to onset: dose-dependent protection against diarrhea

## CC(=O)SCC(Cc1ccccc1)C(=O)NCC(=O)OCc1ccccc1 (centres unmarked) [Racecadotril, benzyl N-[3-(acetylthio)-2 benzylpropanoyl] glycinate]
  Inhibition of castor-oil induced diarrhea: inhibit castor-oil induced diarrhea
pre-treatment p.o.
  Cumulative stool weight following challenge with castor oil: reduction in cumulative stool weight
pre-treatment p.o., dose-response relationship could not be established
  Time to onset: significantly delayed
